Source: ChEMBL document CHEMBL3508693 (2016)

Tests used:
[1] = Excretion (0-96h) of 14C-radioactivity in faeces following single oral dose of 300 mg [14C]SPP100 studied in healthy men; assay type: ADME, organism-based, Feces; conditions: human, in vivo, at 300 mg
[2] = Excretion (0-168h) of radioactivity in faeces following oral administration of [14C] aliskiren hemifumarate at 3 mg.Kg-1 level in marmoset; assay type: ADME, organism-based, Callithrix jacchus, Feces; conditions: in vivo
[3] = Total excretion of radioactivity following oral administration of [14C] aliskiren hemifumarate at 3 mg.Kg-1 level in marmoset; assay type: ADME, organism-based, Callithrix jacchus, Urine/Feces; conditions: in vivo
[4] = Excretion (48h) of radioactivity in urine following oral administration of [14C] aliskiren hemifumarate at 100 mg.Kg-1 level in rat; assay type: ADME, organism-based, Lister-Hooded; conditions: in vivo
[5] = Cmax of [14C] aliskiren hemifumarate following single intravenous dose of [14C] aliskiren hemifumarate at 10 mg.Kg-1 level in mouse; assay type: ADME, organism-based, TgRasH2, Plasma; conditions: in vivo
[6] = Excretion of radioactivity (24-48h) in urine following single oral dose of 500 mg.Kg-1 [14C] aliskiren hemifumarate in mouse; assay type: ADME, organism-based, TgRasH2; conditions: in vivo
[7] = Tmax (0-96h) of total radioactivity following oral administration of [14C] aliskiren hemifumarate at 100 mg.Kg-1 level in rat; assay type: ADME, organism-based, Albino HAN:WIST, Plasma; conditions: in vivo
[8] = % of radioactivity (24h) recovered in bile following single intravenous administration of 10 mg.Kg-1 [14C] aliskiren hemifumarate in male rat; assay type: ADME, organism-based, HAN:WIST(SPF); conditions: in vivo
[9] = % of radioactivity (24h) recovered in faeces following single intravenous administration of 10 mg.Kg-1 [14C] aliskiren hemifumarate in male rat; assay type: ADME, organism-based, HAN:WIST(SPF), Feces; conditions: in vivo
[10] = target: Cytochrome P450 3A7 (Homo sapiens, UniProt P24462); experiment: Metabolic clearance (ul.min.nmol-1 CYP) of aliskiren hemifumarate for CYP3A7 was determined in human liver microsome incubated with [14C]SPP100 hemifumarate; assay type: ADME; conditions: microsomes
[11] = Excretion of radioactivity (48-72h) in faeces following single oral dose of 100 mg.Kg-1 [14C] aliskiren hemifumarate in rat; assay type: ADME, organism-based, Albino HAN:WIST, Feces; conditions: in vivo
[12] = Excretion of radioactivity (48-72h) in faeces following single intravenous dose of 10 mg.Kg-1 [14C] aliskiren hemifumarate in rat; assay type: ADME, organism-based, Albino HAN:WIST, Feces; conditions: in vivo
[13] = Excretion of radioactivity (72-96h) in faeces following single oral dose of 100 mg.Kg-1 [14C] aliskiren hemifumarate in rat; assay type: ADME, organism-based, Albino HAN:WIST, Feces; conditions: in vivo
[14] = Concentration of radioactivity in the liver following repeated oral administration of [14C] aliskiren hemifumarate at 100 mg.Kg-1 level studied at 2h after 3rd dose in rat; assay type: ADME, organism-based, Albino HAN:WIST; conditions: in vivo
[15] = Concentration of radioactivity in the liver following repeated oral administration of [14C] aliskiren hemifumarate at 100 mg.Kg-1 level studied at 2h after 10th dose in rat; assay type: ADME, organism-based, Albino HAN:WIST; conditions: in vivo
[16] = Concentration of radioactivity in the brown fat following repeated oral administration of [14C] aliskiren hemifumarate at 100 mg.Kg-1 level studied at 2h after 7th dose in rat; assay type: ADME, organism-based, Albino HAN:WIST, Brown adipose tissue; conditions: in vivo
[17] = Excretion of radioactivity (0-384h) in faeces following 10 day repeated oral administration of [14C] aliskiren hemifumarate at 100 mg.Kg-1 level studied in rat; assay type: ADME, organism-based, Albino HAN:WIST, Feces; conditions: in vivo
[18] = Tmax (0-168h) of total radioactivity following single oral administration of [14C] aliskiren hemifumarate at 3 mg.Kg-1 level in marmoset; assay type: ADME, organism-based, Callithrix jacchus, Plasma; conditions: in vivo
[19] = Cmax of aliskiren hemifumarate following single dosing of SPP100B oral solution at 160 mg level studied on day 1 in men; assay type: ADME, organism-based; conditions: male, human, plasma
[20] = Tmax of aliskiren hemifumarate following single dosing of SPP100B oral solution at 40 mg level studied on day 1 in men; assay type: ADME, organism-based; conditions: male, human, plasma
[21] = Apparent terminal half-life (0-168h) of unlabeled aliskiren hemifumarate following single intravenous administration of aliskiren hemifumarate at 1 mg.Kg-1 level in marmoset; assay type: ADME, organism-based, Callithrix jacchus; conditions: plasma
[22] = Cmax of aliskiren hemifumarate following 8 day once-daily dosing of SPP100B oral solution at 40 mg level studied on day 8 in men; assay type: ADME, organism-based; conditions: male, human, plasma
[23] = Tmax of aliskiren hemifumarate following 8 day once-daily dosing of SPP100B oral solution at 160 mg level studied on day 8 in men; assay type: ADME, organism-based; conditions: male, human, plasma
[24] = Cmax of aliskiren hemifumarate following 2 week oral dosing of aliskiren hemifumarate at 100 mg.Kg-1 level studied on day 1 in female Callithrix jacchus; assay type: ADME, organism-based; conditions: marmoset, plasma
[25] = Cmax of aliskiren hemifumarate following 2 week oral dosing of aliskiren hemifumarate at 50 mg.Kg-1 level studied on day 14 in male Callithrix jacchus; assay type: ADME, organism-based; conditions: marmoset, plasma
[26] = Effect of 4 week oral dietary dosing of aliskiren hemifumarate at 500 mg.Kg-1 level on spermatogenesis in male mouse; assay type: toxicity, organism-based, CB6F1-TGrasH2, Testis; conditions: in vivo, 672 h
[27] = Tmax of aliskiren hemifumarate following 4 week oral dietary dosing of aliskiren hemifumarate at 2000 mg.Kg-1 level in female mouse; assay type: ADME, organism-based; conditions: CB6F1-TGrasH2, mouse, in vivo
[28] = AUC (0-24h) of aliskiren hemifumarate following 4 week oral dietary dosing of aliskiren hemifumarate at 2000 mg.Kg-1 level in female mouse; assay type: ADME, organism-based; conditions: CB6F1-TGrasH2, mouse, plasma
[29] = AUC (0-24h)/dose of aliskiren hemifumarate following 4 week oral dietary dosing of aliskiren hemifumarate at 500 mg.Kg-1 level in male mouse; assay type: ADME, organism-based, CB6F1-TGrasH2, Plasma; conditions: in vivo
[30] = AUC (0-24h)/dose of aliskiren hemifumarate following 4 week oral dietary dosing of aliskiren hemifumarate at 1000 mg.Kg-1 level in male mouse; assay type: ADME, organism-based, CB6F1-TGrasH2, Plasma; conditions: in vivo
[31] = Tmax of aliskiren hemifumarate following 2 week oral dosing of aliskiren hemifumarate at 10 mg.Kg-1 level studied on day 1 in male Callithrix jacchus; assay type: ADME, organism-based; conditions: marmoset, plasma
[32] = Tmax of aliskiren hemifumarate following 2 week oral dosing of aliskiren hemifumarate at 10 mg.Kg-1 level studied on day 14 in female Callithrix jacchus; assay type: ADME, organism-based; conditions: marmoset, plasma
[33] = Cmin of aliskiren hemifumarate following repeated oral administration of [14C] aliskiren hemifumarate at 100 mg.Kg-1 level studied after first dosing in rat; assay type: ADME, organism-based, Albino HAN:WIST; conditions: in vivo
[34] = Cmax normalised (0-168h) of unlabeled aliskiren hemifumarate following single intravenous administration of aliskiren hemifumarate at 1 mg.Kg-1 level in marmoset; assay type: ADME, organism-based, Callithrix jacchus, Plasma; conditions: in vivo
[35] = Terminal elimination half-life of SPP100 following single oral dose of SPP100 150 mg capsule studied in healthy human; assay type: ADME, organism-based; conditions: plasma
[36] = % SPP100 (0-168h) recovered in urine following single oral dose of [14C] aliskiren hemifumarate at 3 mg.Kg-1 level in marmoset; assay type: ADME, organism-based, Callithrix jacchus; conditions: in vivo

Sequence of Cytochrome P450 3A7 (P24462 whole entry): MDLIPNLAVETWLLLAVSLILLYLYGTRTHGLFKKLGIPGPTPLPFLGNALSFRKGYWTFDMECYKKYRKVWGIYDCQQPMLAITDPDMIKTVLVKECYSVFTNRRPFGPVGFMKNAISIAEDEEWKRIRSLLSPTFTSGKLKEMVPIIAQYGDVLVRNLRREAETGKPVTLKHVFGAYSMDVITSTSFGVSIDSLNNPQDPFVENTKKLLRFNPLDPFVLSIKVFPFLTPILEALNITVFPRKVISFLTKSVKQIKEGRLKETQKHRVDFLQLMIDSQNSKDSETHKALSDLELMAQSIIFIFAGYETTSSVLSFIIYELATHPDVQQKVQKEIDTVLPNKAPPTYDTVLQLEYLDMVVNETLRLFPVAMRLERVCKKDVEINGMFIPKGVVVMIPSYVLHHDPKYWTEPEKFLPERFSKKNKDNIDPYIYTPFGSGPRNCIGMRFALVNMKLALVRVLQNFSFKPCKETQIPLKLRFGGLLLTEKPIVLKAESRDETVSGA

## COCCCOc1cc(C[C@@H](C[C@H](N)[C@@H](O)C[C@H](C(=O)NCC([14CH3])([14CH3])C(N)=O)C(C)C)C(C)C)ccc1OC.O=C(O)/C=C/C(=O)O
[1]
  Radiolabel recovery: 88.17%
[2]
  Radiolabel recovery: 97.5%
[3]
  Radiolabel recovery: 104%
[4]
  Radiolabel recovery: 0.576%
[5]
  Cmax: 14.6 µM
[6]
  Radiolabel recovery: 1.02%
[7]
  Tmax: 15 min
[7]; iv, 10 mg/kg
  Tmax: 4.98 min
[8]
  Radiolabel recovery: 70%
[9]
  Radiolabel recovery: 4.6%
[10]
  CL: 3.5 µL·min/nmol
[11]
  Radiolabel recovery: 0.36%
[12]
  Radiolabel recovery: 4.69%
[13]
  Radiolabel recovery: 0.17%
[14]
  Radiolabel recovery: OUTCOME = Detected
[15]
  Radiolabel recovery: OUTCOME = Detected
[16]
  Radiolabel recovery: OUTCOME = Detected
[17]
  Radiolabel recovery: 102%
[18]
  Tmax: 2 h

## COCCCOc1cc(C[C@@H](C[C@H](N)[C@@H](O)C[C@H](C(=O)NCC(C)(C)C(N)=O)C(C)C)C(C)C)ccc1OC.COCCCOc1cc(C[C@@H](C[C@H](N)[C@@H](O)C[C@H](C(=O)NCC(C)(C)C(N)=O)C(C)C)C(C)C)ccc1OC.O=C(O)/C=C/C(=O)O [ALISKIREN FUMARATE]
[19]
  Cmax: 21.5 ng/mL
[20]
  Tmax: 1.6 h
[21]
  half-life: 2160 min
[22]
  Cmax: 6.2 ng/mL
[23]
  Tmax: 4.1 h
[24]
  Cmax: 7940 ng/mL
[25]
  Cmax: 12300 ng/mL
[26]
  Change in spermatogenesis: OUTCOME = No abnormalities. No animals died during the study.
[27]
  Tmax: 30 min
[28]
  AUC(0-t) at 24 h: 11800 ng·h/mL
[29]
  AUC normalised: 3.41 ((ng/mL).hours)/(mg/kg/day)
[30]
  AUC normalised: 4.82 ((ng/mL).hours)/(mg/kg/day)
[31]
  Tmax: 1 h
[32]
  Tmax: 1 h
[33]
  Cmin(1): 3.47 nmol/L
[34]
  Cmax normalised: 14.24 (umol/L)/(mg/kg)

## COCCCOc1cc(C[C@@H](C[C@H](N)[C@@H](O)C[C@H](C(=O)NCC(C)(C)C(N)=O)C(C)C)C(C)C)ccc1OC
[35]
  half-life: 2460 min
[36]
  Compound recovery: 2.3%
